The record followed here is publication PMC5724930 (Biochemistry, 2017).

Test [1] deals with T1, PanZ (Escherichia coli, UniProt P37613).
T1 construct: PanZ(WT)
Kind of test: ITC; also […] Å crystal structure of the PanD–PanZ·AcCoA complex. It is filed as binding.

The target in test [2] is T2, PanZ (Escherichia coli, UniProt P37613, R73A).
T2 construct: PanZ(R73A)
In words: ITC. It is filed as binding.

T1 sequence (P37613 whole entry): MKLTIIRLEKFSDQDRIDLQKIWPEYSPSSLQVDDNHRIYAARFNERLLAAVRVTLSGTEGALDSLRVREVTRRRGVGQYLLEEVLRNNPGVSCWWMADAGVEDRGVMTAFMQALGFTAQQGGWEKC
T2 sequence (P37613 whole entry R73A): as the sequence (P37613 whole entry) above, with R73A counted along it

For the compound `CC(=O)SCCNC(=O)CCNC(=O)[C@H](O)C(C)(C)COP(=O)(O)OP(=O)(O)OC[C@H]1O[C@@H](n2cnc3c(N)ncnc32)[C@H](O)[C@@H]1OP(=O)(O)O` [AcCoA], the Kd was found to be 0.524 ± 0.064 µM on PanZ [1] and 220 ± 30 µM at PanZ [2].

The Kd is the concentration at which binding is half-saturated. Lower therefore signals tighter binding.
